Assay results from PMC7363588, “Mapping of the FGF14:Nav1.6 complex interface reveals FLPK as a functionally active peptide modulating excitability” (Physiological Reports, 2020).
“And” between values parts separate entries of the source, which are not always exact repeats. Equal entries are not always repeated. “Also recorded” adds a separate entry of the source. Marks after values point to notes of the source that are not given here. Peptide text beside a SMILES is read from it.

Target: T1, Nav1.6 in the presence of FGF14 (FGF14-1b-GFP) (Homo sapiens, UniProt Q92915)
T1 construct: expressed in transfected cells
T1 sequence (Q92915 1-252 isoform Q92915-2): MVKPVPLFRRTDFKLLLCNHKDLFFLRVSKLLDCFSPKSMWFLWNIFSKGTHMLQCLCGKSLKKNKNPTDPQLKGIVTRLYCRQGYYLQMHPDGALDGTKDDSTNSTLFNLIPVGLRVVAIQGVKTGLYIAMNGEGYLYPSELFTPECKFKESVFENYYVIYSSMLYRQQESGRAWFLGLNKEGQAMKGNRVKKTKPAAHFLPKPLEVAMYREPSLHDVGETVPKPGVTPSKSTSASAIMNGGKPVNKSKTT
Experiment: Whole-cell patch-clamp, HEK-Nav1.6 cells expressing FGF14-GFP
Assay type: cell-based
Conditions: 50 μM FLPK
From the text: Plasmids used in this study derived from the following clones: human FGF14‐1b isoform (accession number: NM_175929.2) and human Nav1.6 (accession number: NM_014191.3). The CLuc‐FGF14, CD4‐Nav1.6‐NLuc, constructs and the pcDNA3.1 vector (Invitrogen, Carlsbad, CA) were engineered and characterized as previously described (Goetz et al., 2009; Shavkunov et al., 2012,2013,2015; Ali et al., 2016, 2018; Wadsworth et al., 2019). The plasmid pGL3 expressing full length Firefly (Photinus pyralis) luciferase was a gift from Dr. P. Sarkar (Department of Neurology, UTMB). For protein purification studies, cDNAs encoding FGF14‐1b (accession number NP_787125; aa 64–252) or the C‐terminal tail of Nav1.6 (accession number #NP_001171455; aa 1756–1939) were subcloned into suitable pET bacterial expression vectors (pET28a‐FGF14; pET30a‐Nav1.6) with a 6X His‐tag at the N‐terminal site; these plasmids were a gift of Dr. Moosa Mohammadi (NYU, Langone Medical Center). The mutation coding for FGF14^V160A was generated by site‐directed mutagenesis and PCR using FGF14‐1b as a template described previously (Ali et al., 2016). For electrophysiological studies FGF14‐GFP (human) and FGF14‐ΔNT‐GFP (human) were cloned into the GFP plasmid (pQBI‐fC2; Quantum Biotechnology Inc., Montreal, Canada) as previously described.
HEK293 cells were maintained in DMEM and F‐12 (Invitrogen, Carlsbad, CA), supplemented with 0.05% glucose, 0.5 mM pyruvate, 10% fetal bovine serum, 100 units/ml penicillin, and 100 µg/ml streptomycin (Invitrogen), and incubated at 37 °C with 5% CO2. HEK293 cells stably expressing the human Nav1.6 channel (hereafter referred to as HEK‐Nav1.6 cells) were maintained similarly except for the addition of 500 μg/ml G418 (Invitrogen) to maintain stable Nav1.6 expression. Cells were transfected at 80%–90% confluence with equal amount (1 μg each) of plasmid pairs using Lipofectamine 2000 (Invitrogen) according to manufacturer's instructions. HEK‐Nav1.6 cells were washed and replated at very low density prior to electrophysiological recordings (Ali et al., 2016, 2018; Scala et al., 2018; Wadsworth et al., 2019).
HEK‐Nav1.6 cells transfected with GFP or FGF14‐GFP were plated at low density on glass cover slips for 3–4 hr and subsequently transferred to the recording chamber. Recordings were performed at room temperature (20–22°C) 24 hr posttransfection using a MultiClamp 700B amplifier (Molecular Devices, Sunnyvale, CA). The composition of recording solutions consisted of the following salts; extracellular (mM): 140 NaCl, 3 KCl, 1 MgCl2, 1 CaCl2, 10 HEPES, 10 glucose, pH 7.3; intracellular (mM): 130 CH3O3SCs, 1 EGTA, 10 NaCl, 10 HEPES, pH 7.3. Membrane capacitance and series resistance were estimated by the dial settings on the amplifier and compensated for electronically by 70%–75%. Data were acquired at 20 kHz and filtered at 5 kHz prior to digitization and storage. All experimental parameters were controlled by Clampex 9.2 software (Molecular Devices) and interfaced to the electrophysiological equipment using a Digidata 1,200 analog‐digital interface (Molecular Devices). Voltage‐dependent inward currents for HEK‐Nav1.6 cells were evoked by depolarization to test potentials between −100 mV and +60 mV from a holding potential of −70 mV followed by a voltage prestep pulse of −120 mV (Nav1.6). Steady‐state (fast) inactivation of Nav channels was measured with a paired‐pulse protocol. From the holding potential, cells were stepped to varying test potentials between −120 mV (Nav1.6) and +20 mV (prepulse) prior to a test pulse to −20 mV.
Current densities were obtained by dividing Na^+ current (INa) amplitude by membrane capacitance. Current–voltage relationships were generated by plotting current density as a function of the […]. Conductance (GNa) was calculated by the following equation: GNa=INa/Vm‐Erev where INa ^+ is the current amplitude at voltage Vm, and Erev is the Na^+ reversal potential. […]

CC(=O)N[C@@H](Cc1ccccc1)C(=O)N[C@@H](CC(C)C)C(=O)N1CCC[C@H]1C(=O)N[C@@H](CCCCN)C(N)=O [FLPK] (Ac-FLPK-NH2)
Peak density (I Na) (FGF14-GFP, at −10 mV, mean ± SEM (n = 21), DMSO −16.8 ± 3.3, p < .05 vs FGF14-GFP (DMSO)): −49.6 ± 7.2 pA/pF and −49.6 ± 7.2 (21) ^c pA/pF | Kact (FGF14-GFP, mean ± SEM (n = 11), DMSO 5.7 ± 0.4): 5.7 ± 0.5 (11) ^h,i mV | Activation (V1/2) (FGF14-GFP, mean ± SEM (n = 11), DMSO −16.6 ± 1.0): −20.8 ± 1.5 mV and −20.8 ± 1.5 (11) mV | Steady-state Inactivation (V1/2) (FGF14-GFP, mean ± SEM (n = 11 in Table 3; n = 14 in text), DMSO −54.9 ± 1.1): −59.2 ± 2.1 (11) mV | Kinact (FGF14-GFP, mean ± SEM (n = 14), DMSO 5.9 ± 0.9): 5.9 ± 0.6 (14) mV | shift of V1/2 of activation vs DMSO control (FGF14 wild type, hyperpolarizing direction): −4 mV | effect on FGF14-dependent phenotypes of Nav1.6 currents (HEK-Nav1.6 FGF14-GFP): effectively restored I Na to values that were statistically comparable to the GFP + DMSO control; also recorded: inhibited previously reported modulatory effects of FGF14 (1b isoform) on Nav1.6 currents
